Series [1] deals with T1, UGT1A1 (Homo sapiens, UniProt P22309).
T1 sequence (P22309 26-533): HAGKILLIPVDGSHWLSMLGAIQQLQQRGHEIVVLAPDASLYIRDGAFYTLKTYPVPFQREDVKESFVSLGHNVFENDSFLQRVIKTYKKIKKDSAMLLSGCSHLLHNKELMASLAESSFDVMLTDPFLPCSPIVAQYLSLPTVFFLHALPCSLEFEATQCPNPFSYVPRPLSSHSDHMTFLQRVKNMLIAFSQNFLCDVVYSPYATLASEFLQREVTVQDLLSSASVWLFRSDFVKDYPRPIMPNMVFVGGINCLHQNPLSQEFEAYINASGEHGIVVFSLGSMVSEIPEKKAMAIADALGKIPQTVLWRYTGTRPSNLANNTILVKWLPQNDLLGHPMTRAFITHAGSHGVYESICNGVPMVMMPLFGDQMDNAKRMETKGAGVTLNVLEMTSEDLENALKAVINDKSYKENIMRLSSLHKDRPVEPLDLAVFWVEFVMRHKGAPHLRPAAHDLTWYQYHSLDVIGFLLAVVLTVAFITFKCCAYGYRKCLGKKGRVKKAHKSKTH
Briefly: Modulation of UGT1A1 activity (SN-38 glucuronidation). Format: in vitro ADME. Also on record: purchased Corning, NY, USA (through DIAG-MED, Poland); host or cells: baculovirus-insect cells (Supersomes). As to conditions: SN-38 substrate. The procedure: (§1) Isoenzyme activity was studied by the rate measurement of β-hydroxylation of testosterone (specific substrate for P4503A4) and of glucuronidation of specific substrates, namely, SN-38 (UGT1A1), EPI (UGT2B7),) and TFK (UGT2B15). All substrate and drug solutions were prepared as 10 mM stock solutions in DMSO and were diluted in […] (pH 7.4). The mixture containing isoenzymes P4503A4/UGT (0.5 mg/mL), probe substrate (0.1 mM), cofactor 2 mM NADPH/5 mM UDPGA and the increasing concentrations of tested UA (0, 0.01, 0.02 and 0.05 mM) was incubated in the reaction buffer containing (i) for P4503A4 0.1 M HEPES, 88 mM MgCl2 and (ii) for UGT 0.1 M HEPES, 88 mM MgCl2, 25 μg/mL alamethicin at 37 °C for 30 min and were terminated by adding 8.75 µL of 0.1 M HCl. The samples were placed in ice for 10 min and centrifuged (10 min, 13,400 rpm). Supernatant fractions were analyzed by HPLC. For more accurate investigation of P4503A4 inhibition by C-2045 and C-2053 the β-hydroxylation rate was measured at various concentrations of testosterone: 0.02, 0.05, 0.1 and 0.2 mM. The inhibitor (UA) concentrations were 0, 0.001, 0.005 and 0.01 mM, whereas the incubation time 30 min and concentration of P4503A4 (0.5 mg/mL).

Series [2] addresses T2, UGT2B7 (Homo sapiens, UniProt P16662).
T2 construct: purchased Corning, NY, USA (through DIAG-MED, Poland); host or cells: baculovirus-insect cells (Supersomes)
T2 sequence (P16662 24-529): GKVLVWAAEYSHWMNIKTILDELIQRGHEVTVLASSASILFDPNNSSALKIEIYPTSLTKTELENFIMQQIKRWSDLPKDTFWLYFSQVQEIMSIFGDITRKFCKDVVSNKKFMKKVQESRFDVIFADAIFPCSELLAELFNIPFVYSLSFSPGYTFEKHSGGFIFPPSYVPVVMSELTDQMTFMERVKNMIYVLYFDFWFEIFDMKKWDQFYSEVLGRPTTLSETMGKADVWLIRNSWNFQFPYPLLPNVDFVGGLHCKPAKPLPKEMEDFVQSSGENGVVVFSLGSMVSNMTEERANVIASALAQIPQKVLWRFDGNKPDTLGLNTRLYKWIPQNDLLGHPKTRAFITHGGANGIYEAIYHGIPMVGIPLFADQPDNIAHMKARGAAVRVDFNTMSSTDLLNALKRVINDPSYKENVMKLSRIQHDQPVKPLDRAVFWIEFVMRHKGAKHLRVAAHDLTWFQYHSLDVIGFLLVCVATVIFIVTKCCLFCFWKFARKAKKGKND
In words: Modulation of UGT2B7 activity (epirubicin glucuronidation). As to conditions: epirubicin substrate. Format: in vitro ADME. The procedure:
as §1

The test system of series [3] is HCT-116 cells. In words: Drug metabolism in HCT-116 colon tumor cells. Format: cell-based, human. As to conditions: HCT-116 (low UGT expression), 50 μM, medium and cell extract, up to 24 h. The procedure: (§2) To analyze the transformation products of UAs in colon tumor cell lines, HCT-116 or HT-29 cells were plated in 60 mm Petri dishes; after reaching 80% of confluence, cells were treated with 5/25/50 μM of C-2028, C-2045 or C-2053 (prepared as 10 or 2 mM stock solutions in water) for specified time. Half of medium was added to acetonitrile (1:1, v/v), centrifuged (12 min, 13,400 rpm, 4 °C) and the supernatant was analyzed by HPLC (post-culture medium). Cells remaining on the Petri dishes were collected by gentle scraping, sedimented, washed with ice-cold PBS, suspended in ice-cold chloroform and lysed by sonication for 15 min. After 1 h on ice, insoluble material was removed by centrifugation at 13,000 rpm for 20 min at 4 °C. The sediment was discarded and supernatant (chloroform) were evaporated under pressure. Then, sample was suspended in ice-cold 60% methanol and directly analyzed by HPLC (cell extract).

The subject of series [4] is HCT-116-UGT1A10 cells. Briefly: Drug metabolism in HCT-116 cells transfected with UGT1A10. Format: cell-based, human. As to conditions: HCT-116 overexpressing UGT1A10, 50 μM, medium and cell extract, 24 and 72 h. As to the method:
as §2

Here are results for 2 compounds from article PMC8066102, “Metabolic Profiles of New Unsymmetrical Bisacridine Antitumor Agents in Electrochemical and Enzymatic Noncellular Systems and in Tumor Cells” (Pharmaceuticals, 2021).

As to `CN(CCCNc1c2ccccc2nc2cccc([N+](=O)[O-])c12)CCCNc1ccc2ncn3c4ccccc4c(=O)c1c23` [C-2028], the “activity decrease of UGT1A1” value in series [1] (low concentrations of compound) came out at 77%. Further, in series [1] (human, UGT1A1 isoenzyme preparation, pH 7.4, probe SN-38, higher concentrations of compound, read-out: inhibition rate of UGT1A1), the inhibition at 30 min is 65 to 70%. Besides, the “decrease in the activity of UGT2B7” value in series [2] (0.01 mM and 0.02 mM compound) was 60%. The same compound returned an inhibition at 30 min, 0.05 mM in series [2] (human, UGT2B7 isoenzyme preparation, pH 7.4, probe epirubicin (EPI), 0.05 mM compound) of 90%.
In the case of `Cc1ccc([N+](=O)[O-])c2c(NCCCN(C)CCCNc3ccc4ncn5c6ccc(O)cc6c(=O)c3c45)c3ccccc3nc12` [C-2045], the “metabolite formation in cells” value in series [3] is on record as “No metabolite products were observed”; in series [4], “metabolized the substrate to the derivative, which was found in the cell medium rather than in the cell extract”.

Broadly, the inhibition is the percentage by which the read-out fell short of the control.
